Columns and labels:
Experiment in all cases: OncoPanel cytotoxicity assay
Assay type in all cases: cell-based
[1] = system: RKOE6; conditions: Homo sapiens, 72 hour incubation
Protocol: (§1) Cells were grown in RPMI 1640, 10% FBS, 2 mM L-alanyl-L-Glutamine, 1 mM Na Pyruvate, or a special medium in a humidified atmosphere of 5% CO2 at 37° C. Cells were seeded into 384-well plates and incubated in a humidified atmosphere of 5% CO2 at 37° C. Test compounds were added 24 hours post cell seeding. At the same time, a time zero, untreated cell plate was generated as a control. After a 72 hour incubation period, cells were fixed and stained with nuclear dye to allow visualization of nuclei.
(§2) Compounds were serially diluted 3.16-fold and assayed over 10 concentrations of inhibitor in a final assay concentration of 0.1% DMSO from the highest test concentration specified in the sample information chapter. Automated fluorescence microscopy was carried out using a GE Healthcare InCell Analyzer 1000, and images were collected with a 4× objective. Twelve bit tiff images were acquired using the InCell Analyzer 1000 3.2 and analyzed with Developer Toolbox 1.6 software.
(§3) Cell proliferation was measured by the signal intensity of the incorporated nuclear dye. The cell proliferation assay output is referred to as the relative cell count. To determine the cell proliferation end point, the cell proliferation data output is transformed to percent of control (POC) using the following formula: […]
(§4) Relative cell count IC50 (IC50) is the test compound's concentration that produces 50% of the cell proliferation inhibitory response or 50% cytotoxicity level. IC50 values were calculated using nonlinear regression to fit data to a sigmoidal 4 point, 4 parameter One-Site dose response model, where: y (fit)=A+[(B−A)/(1+((C/x)̂D))]. Curve-fitting, IC50 calculations and report generation were performed using a custom data reduction engine MathIQ based software (AIM). […] In these cases, the IC50 values were expressed as 40 μM and 10 μM, respectively (Table 2).

[2] = system: RKO; conditions: Homo sapiens, 72 hour incubation
Protocol: as §1, §2, §3, §4

[3] = system: CEM-C1; conditions: Homo sapiens, 72 hour incubation
Protocol: as §1, §2, §3, §4

[4] = system: FaDu; conditions: Homo sapiens, 72 hour incubation
Protocol: as §1, §2, §3, §4

[5] = system: 22Rv1; conditions: Homo sapiens, 72 hour incubation
Protocol: as §1, §2, §3, §4

[6] = system: 647-V; conditions: Homo sapiens, 72 hour incubation
Protocol: as §1, §2, §3, §4

[7] = system: D283 Med; conditions: Homo sapiens, 72 hour incubation
Protocol: as §1, §2, §3, §4

[8] = system: HPAF-II; conditions: Homo sapiens, 72 hour incubation
Protocol: as §1, §2, §3, §4

[9] = system: DOHH-2; conditions: Homo sapiens, 72 hour incubation
Protocol: as §1, §2, §3, §4

[10] = system: SW837; conditions: Homo sapiens, 72 hour incubation
Protocol: as §1, §2, §3, §4

[11] = system: MDA MB 453; conditions: Homo sapiens, 72 hour incubation
Protocol: as §1, §2, §3, §4

[12] = system: SW948; conditions: Homo sapiens, 72 hour incubation
Protocol: as §1, §2, §3, §4

[13] = system: ARH-77; conditions: Homo sapiens, 72 hour incubation
Protocol: as §1, §2, §3, §4

[14] = system: OVCAR3; conditions: Homo sapiens, OVCAR-3, 72 hour incubation
Protocol: as §1, §2, §3, §4

[15] = system: SW954; conditions: Homo sapiens, SW 954, 72 hour incubation
Protocol: as §1, §2, §3, §4

[16] = system: ST486; conditions: Homo sapiens, 72 hour incubation
Protocol: as §1, §2, §3, §4

[17] = system: WiDr; conditions: Homo sapiens, 72 hour incubation
Protocol: as §1, §2, §3, §4

[18] = system: NCI-H295R; conditions: Homo sapiens, 72 hour incubation
Protocol: as §1, §2, §3, §4

[19] = system: C32; conditions: Homo sapiens, 72 hour incubation
Protocol: as §1, §2, §3, §4

[20] = system: RL95-2; conditions: Homo sapiens, 72 hour incubation
Protocol: as §1, §2, §3, §4

[21] = system: A431; conditions: Homo sapiens, A-431, 72 hour incubation
Protocol: as §1, §2, §3, §4

[22] = system: DLD-1; conditions: Homo sapiens, 72 hour incubation
Protocol: as §1, §2, §3, §4

[23] = system: A-673; conditions: Homo sapiens, A673, 72 hour incubation
Protocol: as §1, §2, §3, §4

[24] = system: JEG-3; conditions: Homo sapiens, 72 hour incubation
Protocol: as §1, §2, §3, §4

[25] = system: DMS114; conditions: Homo sapiens, DMS-114, 72 hour incubation
Protocol: as §1, §2, §3, §4

[26] = system: C-33A; conditions: Homo sapiens, 72 hour incubation
Protocol: as §1, §2, §3, §4

[27] = system: A498; conditions: Homo sapiens, 72 hour incubation
Protocol: as §1, §2, §3, §4

[28] = system: SNU-1; conditions: Homo sapiens, SNU1, 72 hour incubation
Protocol: as §1, §2, §3, §4

[29] = system: TE 381.T; conditions: Homo sapiens, 72 hour incubation
Protocol: as §1, §2, §3, §4

[30] = system: HMCB; conditions: Homo sapiens, 72 hour incubation
Protocol: as §1, §2, §3, §4

[31] = system: CaOV3; conditions: Homo sapiens, Caov-3, 72 hour incubation
Protocol: as §1, §2, §3, §4

[32] = system: CAMA-1; conditions: Homo sapiens, 72 hour incubation
Protocol: as §1, §2, §3, §4

[33] = system: A7; conditions: Homo sapiens, 72 hour incubation
Protocol: as §1, §2, §3, §4

[34] = system: Caki-2; conditions: Homo sapiens, 72 hour incubation
Protocol: as §1, §2, §3, §4

[35] = system: HLF; conditions: Homo sapiens, 72 hour incubation
Protocol: as §1, §2, §3, §4

[36] = system: SKOV3; conditions: Homo sapiens, SK-OV-3, 72 hour incubation
Protocol: as §1, §2, §3, §4

[37] = system: RKO-AS45-1; conditions: Homo sapiens, RKOAS451, 72 hour incubation
Protocol: as §1, §2, §3, §4

[38] = system: MES-SA; conditions: Homo sapiens, 72 hour incubation
Protocol: as §1, §2, §3, §4

[39] = system: HEC-1-A; conditions: Homo sapiens, 72 hour incubation
Protocol: as §1, §2, §3, §4

SMILES	IC50 [1]	IC50 [2]	IC50 [3]	IC50 [4]	IC50 [5]	IC50 [6]	IC50 [7]	IC50 [8]	IC50 [9]	IC50 [10]	IC50 [11]	IC50 [12]	IC50 [13]	IC50 [14]	IC50 [15]	IC50 [16]	IC50 [17]	IC50 [18]	IC50 [19]	IC50 [20]	further results
CC[C@@H]1CNC2(CC2)CN1C(=O)[C@@H]1C[C@@H](F)CN1C(=O)C1=C(C(C)C)N2C(=N[C@@](C)(c3ccc(Cl)nc3)[C@H]2c2ccc(Cl)c(F)c2)S1 [Compound A, [(5R,6S)-5-(4-Chloro-3-fluorophenyl)-6-(6-chloropyridin-3-yl)-6-methyl-3-(propan-2-yl)-5,6-dihydroimidazo[2,1-b][1,3]thiazol-2-yl][(2S,4R)-2-{[(6R)-6-ethyl-4,7-diazaspiro[2.5]oct-7-yl]carbonyl}-4-fluoropyrrolidin-1-yl]methanone]	38.2 µM	0.654 µM	33.6 µM	> 40 µM	1.31 µM	> 40 µM	0.529 µM	> 40 µM	0.123 µM	> 40 µM	32.8 µM	> 40 µM	> 40 µM	> 40 µM	> 40 µM	24.3 µM	34.8 µM	> 40 µM	> 40 µM	13.8 µM	IC50 [21]: > 40 µM; IC50 [22]: > 40 µM; IC50 [23]: > 40 µM; IC50 [24]: 3.62 µM; IC50 [25]: > 40 µM; IC50 [26]: > 40 µM; IC50 [27]: 1.71 µM; IC50 [28]: 0.412 µM; IC50 [29]: 37.3 µM; IC50 [30]: > 40 µM; IC50 [31]: > 40 µM; IC50 [32]: > 40 µM; IC50 [33]: > 40 µM; IC50 [34]: 0.472 µM; IC50 [35]: > 40 µM; IC50 [36]: > 40 µM; IC50 [37]: 0.471 µM; IC50 [38]: 0.529 µM; IC50 [39]: > 40 µM
CC1(C)CCC2(CC1)N[C@@H](C(=O)N[C@@H]1CC[C@@H](C(N)=O)OC1)[C@H](c1ccnc(Cl)c1F)[C@]21C(=O)Nc2cc(Cl)ccc21 [Compound B, (3′R,4′S,5′R)—N-[(3R,6S)-6-carbamoyltetrahydro-2H-pyran-3-yl]-6″-chloro-4′-(2-chloro-3-fluoropyridin-4-yl)-4,4-dimethyl-2″-oxo-1″,2″-dihydrodispiro[cyclohexane-1,2′-pyrrolidine-3′,3″-indole]-5′-carboxamide]	7.59 µM	0.107 µM	9.37 µM	> 10 µM	0.109 µM	> 10 µM	0.0819 µM	5.79 µM	0.0288 µM	> 10 µM	9.29 µM	> 10 µM	7.61 µM	> 10 µM	8.33 µM	6.44 µM	5.58 µM	> 10 µM	> 10 µM	3.72 µM	IC50 [21]: > 10 µM; IC50 [22]: 8.91 µM; IC50 [23]: 9.21 µM; IC50 [24]: 0.249 µM; IC50 [25]: > 10 µM; IC50 [26]: 5.49 µM; IC50 [27]: 0.119 µM; IC50 [28]: 0.135 µM; IC50 [29]: 9.73 µM; IC50 [30]: 5.49 µM; IC50 [31]: > 10 µM; IC50 [32]: > 10 µM; IC50 [33]: 3.59 µM; IC50 [34]: 0.0821 µM; IC50 [35]: > 10 µM; IC50 [36]: > 10 µM; IC50 [37]: 0.074 µM; IC50 [38]: 0.0641 µM; IC50 [39]: > 10 µM
